# Measurements published in US20150285812A1, “Fluorescence-Labelled Fatty Acids and Uses Thereof” (SANOFI, priority 2012, published 2015).
# Columns and labels:
# HSA [1] = target: T1, HSA (Homo sapiens, UniProt P02768); assay: Displacement of NBD derivatives on HSA by natural fatty acids C6 to C16 (fluorescence); format: binding; set-up: key to displacement of NBD C8 (15) bound to HSA / displacement of NBD C10 (16) bound to HSA / displacement of NBD C12 (17) bound to HSA: + stands for displacement; − for no displacement; details: for relative binding affinity of the NBD dye for HSA: ranking among NBD C8, C10 and C12 from the competition experiments
# T1 construct: purchased Sigma Aldrich A1887
# Procedure: Dilution series for competition experiments with the fatty acids C6 to C16 were diluted with phosphate-buffered saline solution (DPBS buffer). Geometric dilution series of each fatty acid were prepared in 384 well microplates with a starting concentration of 2500 μM and a dilution factor of 0.33 and also 9 dilution steps. The final volume of each concentration was 80 μl. The plated-out fatty acids were stored in the deep freeze (−25° C.) until use.
# For displacement experiments 2.50 ml of a 25 μM HSA solution were used per dye derivative. Due to the subsequent dilution steps the HSA concentration was doubled twice such that 2.50 ml of […] solution were prepared.
# The dye concentrations were also doubled twice by the following dilution steps. 2.50 ml of each dye solution were needed. 2.10 ml of the respective dye solution were then mixed with 2.10 ml of the 100 μM HSA solution. The respective concentrations of the solutions halve here once. 50 μl of the mixture per well were introduced into a 96 well microplate.
# The fatty acid microplates were brought to room temperature and 50 μl each of the dilution series were pipetted into the HSA-dye mixture. The concentrations of all solution constituents were thereby halved once again. In analogy to the experiments measuring the fluorescence of the fluorescence-labelled derivatives without HSA above, the solutions were pipetted from the 96 well microplate into a 384 well microplate. Absorption was not measured. The fluorescence measurement without a wavelength scan was carried out in analogy to the above-referenced experiment.
# A concentration of 25 μM and a binding ratio of the NBD derivatives to HSA of 1:1 were employed for the displacement studies. For each dye derivative an NBD-HSA mixture with a concentration of 25 μM was prepared.
# [2] = log D7.4 determination by RP-HPLC, similar to the water/octanol partition coefficient method; format: physicochemical; details: pH 7.4, RP-HPLC C18, range −1 to +6
# Procedure: log D7.4 values were determined by a method similar to the partition coefficient method in a water/octanol mixture and were carried out on an RP-HPLC from Waters Alliance (2795) having a C18 column (2×20 mm) with a gradient of morpholinesulfonic acid buffer (pH 7.4) and acetonitrile. The range was between −1 ([…]) to +6 (lipophilic).
# HSA [3] = target: T1, HSA; assay: Fluorescence of NBD and dansyl dyes with increasing HSA (FRET effect, emission maxima); format: binding; details: for change in fluorescence intensity with increasing HSA concentration: HSA 1.56 to 200 μM, pH 7.4
# Procedure: Absorption and fluorescence of fluorescence-labelled derivatives and HSA were carried out in a Varioskan™ microplate reader (Thermo Electron Corporation). 96 well (Costar, half area, flat bottom) microplates were used for absorption measurements and 384 well (Greiner Bio One, small volume, black) microplates from Greiner Bio One were used for fluorescence measurements. All measurements were carried out at pH 7.4 and room temperature.
# 5.00 ml of a 400 μM solution were prepared from the HSA stock solution. From this solution a geometric dilution series with 7 dilution steps, a dilution factor of 0.5 and a final volume of each concentration of 2.5 ml were prepared.
# Defined concentrations of the fluorescence-labelled compounds were selected from the preceding experiment without HSA above and double-concentrated solutions thereof were prepared to take into account the later 1:1 dilution. For each fluorescence-labelled compound (12-17; 19-25) 1.00 ml of these double-concentrations was prepared. 50 μl of the dye solutions were introduced into a 96 well microplate and 50 μl each of the HSA dilution series were added. By mixing the solutions the concentrations of dye derivatives and the HSA solution were halved. The measurements of the absorption and fluorescence were carried out in analogy to the above experimental procedure without HSA.
# In analogy to the absorption measurement the effect of HSA on the fluorescence of the dyes (12-17; 19-25) was determined. The same concentrations of NBD and dansyl dyes and the same concentration range for HSA as already described above were used.
# HSA [4] = target: T1, HSA; assay: Job plot of the fluorescence: stoichiometry of labelled fatty acids to HSA; format: binding; details: maximum in the curve or none
# Procedure: The stoichiometry of NBD- and dansyl-labelled fatty acids bound to HSA was determined by Job plots, also called the “method of continuous variability” as different mole fractions of the respective binding partners are mixed with one another and then measured spectroscopically. Solutions of equimolar concentrations of HSA and dye were mixed such that the mole fractions of the substances were varied but the total molarity of the sample solution stayed constant. For short NBD derivatives C2 to C6 (12-14) no binding to HSA was confirmed, whereas binding ratios for long NBD derivatives C8 to C12 (15-17) to HSA were 1:1. For short dansyl derivatives C2 to C8 (19-22) binding ratios for HSA were 2:1, whereas the long dansyl derivatives C10 and C12 (23-24) bound to HSA in the ratio of 4:1. The finding that even dansyl C2 (19) was bound to HSA led to the question as to what extent the dansyl label itself is recognized by HSA. Because even dansyl methylamide (25) bound to HSA, even though it lacks a carboxyl group, it seems that the dye label could also bind to HSA.
# For the Job plot the dye and HSA solutions were employed in equimolar amounts. 10.00 ml of 100 μM HSA solution and in each case 2.00 ml of a 100 μM dye solution (12-17; 19-25) were prepared from the above stock solutions. For the Job plot method the dye solutions were mixed with the HSA solution in different ratios as described below in Table 8. […] According to the same dilution scheme the dye solutions were also mixed with DPBS buffer for measuring the blank values of the fluorescence-labelled derivatives (see K. C. Ingham, Analytical Biochemistry 68 (1975) 660-663). […] Absorption was not measured. A fluorescence measurement without a wavelength scan was also carried out in analogy to the above experiment without HSA.
# For NBD derivatives (12-17) and HSA 100 μM solutions were used. […] In total 11 solutions per dye derivative were prepared for fluorescence measurement by mixing the two binding partners. […] The fluorescence intensities were plotted against the mole fractions of the binding partners. […]
# [5] = NBD-HSA mixture 25 μM, 1:1, competitor natural fatty acid
# [6] = dansyl compound 100 μM, λex = 330 nm
# [7] = NBD compound 25 μM, λex = 480 nm
# [8] = NBD derivatives 25 μM, 480-550 nm
# T1 sequence (P02768 25-609): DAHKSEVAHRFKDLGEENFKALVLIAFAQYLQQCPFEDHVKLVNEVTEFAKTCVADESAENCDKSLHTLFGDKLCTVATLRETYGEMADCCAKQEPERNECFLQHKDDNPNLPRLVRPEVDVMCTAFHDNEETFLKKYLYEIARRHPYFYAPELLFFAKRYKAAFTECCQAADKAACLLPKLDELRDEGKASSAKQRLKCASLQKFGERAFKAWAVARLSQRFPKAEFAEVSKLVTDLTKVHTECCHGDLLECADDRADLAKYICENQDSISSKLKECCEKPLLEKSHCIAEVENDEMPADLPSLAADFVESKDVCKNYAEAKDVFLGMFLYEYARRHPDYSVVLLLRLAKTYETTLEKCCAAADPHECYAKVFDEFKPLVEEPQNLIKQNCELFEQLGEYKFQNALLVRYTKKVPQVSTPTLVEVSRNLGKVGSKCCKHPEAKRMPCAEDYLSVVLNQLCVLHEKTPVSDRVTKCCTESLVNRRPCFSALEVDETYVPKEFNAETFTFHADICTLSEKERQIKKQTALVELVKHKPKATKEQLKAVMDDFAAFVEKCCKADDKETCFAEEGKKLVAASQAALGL
smiles,measurement,setting,value
"CCCCCC(=O)O [FA C6, caproic acid]",displacement of NBD C8 (15) bound to HSA,HSA [1]; [5],−
same,displacement of NBD C8 (15) from HSA,HSA [1]; [5],did not displace
same,displacement of NBD C10 (16) bound to HSA,HSA [1]; [5],−
same,displacement of NBD C10 (16) from HSA,HSA [1]; [5],not displaced
same,displacement of NBD C12 (17) bound to HSA,HSA [1]; [5],−
"CN(C)c1cccc2c(S(=O)(=O)NCCCCCCCCCC(=O)O)cccc12 [dansyl C10 (23), 10-(5-Dimethylaminonaphthalene-1-sulfonylamino)decanoic acid]",chromatographic logD,[2],2.74
same,"Δλ, shift of emission maximum λem without HSA vs with HSA",HSA [3]; [6],68 nm
"CN(C)c1cccc2c(S(=O)(=O)NCCCC(=O)O)cccc12 [dansyl C4 (20), 4-(5-Dimethylaminonaphthalene-1-sulfonylamino)butanoic acid]",chromatographic logD,[2],1.21
same,"Δλ, shift of emission maximum λem without HSA vs with HSA",HSA [3]; [6],88 nm
"CNS(=O)(=O)c1cccc2c(N(C)C)cccc12 [DMA (25), 5-Dimethylaminonaphthalene-1-sulfonic acid methylamide]",chromatographic logD,[2],2.76
same,"Δλ, shift of emission maximum λem without HSA vs with HSA",HSA [3]; [6],80 nm
same,change in fluorescence intensity with increasing HSA concentration,"HSA [3]; dansyl derivatives 100 μM, 330-560 nm",smallest fluorescence increase
same,binding to HSA (qualitative),HSA [4],binds to HSA
same,binding to HSA (qualitative),HSA [4]; listed as dansyl methylamide (25),bound to HSA
"O=C(O)CCCCCNc1ccc([N+](=O)[O-])c2nonc12 [NBD C6 (14), 6-(7-Nitrobenzo[1,2,5]oxadiazol-4-ylamino)hexanoic acid]",chromatographic logD,[2],0.53
same,"Δλ, shift of emission maximum λem without HSA vs with HSA",HSA [3]; [7],0 nm
same,change in fluorescence intensity with increasing HSA concentration,HSA [3]; [8],no changes in fluorescence intensity
"CCCCCCCCCCCCCC(=O)O [FA C14, myristic acid]",displacement of NBD C8 (15) bound to HSA,HSA [1]; [5],+
same,displacement of NBD C8 (15) from HSA,HSA [1]; [5],displaced
same,displacement of NBD C10 (16) bound to HSA,HSA [1]; [5],+
same,displacement of NBD C12 (17) bound to HSA,HSA [1]; [5],+
"O=C(O)CNc1ccc([N+](=O)[O-])c2nonc12 [NBD C2 (12), 2-(7-nitrobenzo[1,2,5]oxadiazol-4-ylamino)ethanoic acid]",log D7.4,[2],< −1
same,"Δλ, shift of emission maximum λem without HSA vs with HSA",HSA [3]; [7],0 nm
same,change in fluorescence intensity with increasing HSA concentration,HSA [3]; [8],no changes in fluorescence intensity
"CCCCCCCCCC(=O)O [FA C10, capric acid]",displacement of NBD C8 (15) bound to HSA,HSA [1]; [5],+
same,displacement of NBD C8 (15) from HSA,HSA [1]; [5],displaced
same,displacement of NBD C10 (16) bound to HSA,HSA [1]; [5],unclear
same,displacement of NBD C12 (17) bound to HSA,HSA [1]; [5],−
same,displacement of NBD C12 (17) from HSA,HSA [1]; [5],no longer capable of displacing
"CN(C)c1cccc2c(S(=O)(=O)NCCCCCCCC(=O)O)cccc12 [dansyl C8 (22), 8-(5-Dimethylaminonaphthalene-1-sulfonylamino)octanoic acid]",chromatographic logD,[2],2.1
same,"Δλ, shift of emission maximum λem without HSA vs with HSA",HSA [3]; [6],74 nm
"CCCCCCCCCCCC(=O)O [FA C12, lauric acid]",displacement of NBD C8 (15) bound to HSA,HSA [1]; [5],+
same,displacement of NBD C8 (15) from HSA,HSA [1]; [5],displaced
same,displacement of NBD C10 (16) bound to HSA,HSA [1]; [5],+
same,displacement of NBD C12 (17) bound to HSA,HSA [1]; [5],+
same,displacement of NBD C12 (17) from HSA,HSA [1]; [5],displaced
"O=C(O)CCCCCCCCCNc1ccc([N+](=O)[O-])c2nonc12 [NBD C10 (16), 10-(7-Nitrobenzo[1,2,5]oxadiazol-4-ylamino)decanoic acid]",chromatographic logD,[2],2.03
same,"Δλ, shift of emission maximum λem without HSA vs with HSA",HSA [3]; [7],16 nm
same,change in fluorescence intensity with increasing HSA concentration,HSA [3]; [8],increase in fluorescence intensity
same,relative binding affinity of the NBD dye for HSA,HSA [1],minimally smaller
same,relative binding affinity of the NBD dye for HSA,HSA [1]; listed as NBD C10,binding strength which lies between these two
"CN(C)c1cccc2c(S(=O)(=O)NCCCCCC(=O)O)cccc12 [dansyl C6 (21), 6-(5-Dimethylaminonaphthalene-1-sulfonylamino)hexanoic acid]",chromatographic logD,[2],1.56
same,"Δλ, shift of emission maximum λem without HSA vs with HSA",HSA [3]; [6],82 nm
"O=C(O)CCCNc1ccc([N+](=O)[O-])c2nonc12 [NBD C4 (13), 4-(7-Nitrobenzo[1,2,5]oxadiazol-4-ylamino)butanoic acid]",log D7.4,[2],−0.46
same,"Δλ, shift of emission maximum λem without HSA vs with HSA",HSA [3]; [7],2 nm
same,change in fluorescence intensity with increasing HSA concentration,HSA [3]; [8],no changes in fluorescence intensity
"CN(C)c1cccc2c(S(=O)(=O)NCCCCCCCCCCCC(=O)O)cccc12 [dansyl C12 (24), 12-(5-Dimethylaminonaphthalene-1-sulfonylamino)dodecanoic acid]",chromatographic logD,[2],3.49
same,log D7.4,[2],3.49
same,"Δλ, shift of emission maximum λem without HSA vs with HSA",HSA [3]; [6],66 nm
"O=C(O)CCCCCCCNc1ccc([N+](=O)[O-])c2nonc12 [NBD C8 (15), 8-(7-Nitrobenzo[1,2,5]oxadiazol-4-ylamino)octanoic acid]",chromatographic logD,[2],1.29
same,"Δλ, shift of emission maximum λem without HSA vs with HSA",HSA [3]; [7],10 nm
same,change in fluorescence intensity with increasing HSA concentration,HSA [3]; [8],greatest increase in fluorescence intensity
same,relative binding affinity of the NBD dye for HSA,HSA [1],lowest affinity
